Results as given in PMC8998618, “A Pharmacokinetic and Metabolism Study of the TRPC6 Inhibitor SH045 in Mice by LC-MS/MS” (International Journal of Molecular Sciences, 2022).

What was measured:
[1] = tissue homogenate binding by ultrafiltration; type: in vitro ADME, mice
Protocol: After centrifugation of mixtures from tissue or microsomal incubations for 15 min at 4 °C, the supernatants were filtered through a 0.2 -µm-pore-size syringe filter and stored in the autosampler at 6 °C until analysis by LC-MS/MS as […]
SM5 Tissue binding of SH045
The tissue binding of SH045 was analyzed exemplarily in lung, liver and kidney homogenate using ultrafiltration [5]. Appropriate concentrations of homogenate and SH045 were optimized out of data from a series of various dilution ratios of tissue homogenates (1/2, 1/5, 1/10 and 1/20, w/v) and SH045 concentrations in spiked homogenate (liver and kidney: 0.05, 0.1, 0.5, 1, 2, 5 µg/mL; lung: 1, 2, 5, 10, 20, 50 µg/mL, not shown). Tissue binding assays were performed as follows: 448 µL tissue homogenates (1/10, w/v) were mixed with 2 µL SH045 (final: 50 µg/ml for lung, 2 µg/ml for liver and 1 µg/ml kidney). After incubation for 15 min at 37 °C at 450 rpm, 400 µL of the mixture was transferred to centrifugal filter units (30kDa) and centrifuged for 20 min at 2000g and 37 °C. 20 µL of the mixture and the filtrate were analyzed for SH045. The concentration in the filtrate refers to the unbound SH045 concentration according to tissue binding (%) = (ctot – cfiltrate) / ctotal × 100%. […]
Mean maximum rate vmax and Michaelis- […]
CLint,micr the intrinsic clearance CLint, equal to the maximum enzyme activity of liver and for in vitro-in vivo exploration of hepatic clearance CLhep in mouse and human using the “well-stirred” model [6].
(§1) SM7 Identification of metabolism pathways and metabolites of SH045 in MLM and HLM To determine possible metabolism pathways of SH045 in MLM and HLM, an in vitro inhibition approach was performed with CYP-isoform specific inhibitors (final concentration): ciprofloxacin (CYP1A2; 150 µM), pilocarpine (CYP2A6; 50 µM), ticlopidine (CYP2B6; 5 µM), quercetin (CYP2C8; 2 µM), sulfaphenazole (CYP2C9; 10 µM), fluvoxamine (CYP2C19; 10 µM), quinidine (CYP2D6; 10 µM), 4-methyl pyrazole (CYP2E1; 100 µM) and ketoconazole (CYP3A4; 1 µM) [7, 8]. […]

[2] = time-dependent metabolization (stability) in HLM and IVIVE of hepatic clearance; type: in vitro ADME, human
Excerpt: In the widely used concept of the “well-stirred” model, liver represents a single uniform compartment. It is further assumed that the concentration of unbound SH045 leaving the liver is in equilibrium with its unbound concentration in hepatocytes (detailed calculation in Supplementary Materials SM8, summarized values in SR4). Briefly, microsomal intrinsic clearance was converted to hepatic clearance: CLhep = Q × fu × CLint/Q + (fu × CLint), where fu is the unbound fraction of SH045 in blood and Q is the hepatic blood flow in mice.
For this purpose, remaining concentrations of SH045 in microsomes were determined to calculate the intrinsic microsomal clearance CLint,micr, the intrinsic clearance CLint, equal to the maximum enzyme activity of liver and for in vitro-in vivo exploration of hepatic clearance CLhep in mouse and human using the well-stirred model. The algorithm for these calculations is given in detail in the Supplementary Materials SM8. […]
All microsome incubations were stopped with 1 mL ice -cold ACN containing 5 µg/mL IS, vortexed for 1 min and cooled at -20 °C for 10 min. […]
2 µL SH045 (final concentration 0.5 – 100 µM, in triplicate), 12.5 µL HLM or MLM (finally 0.5 mg/mL protein) and 460.5 µL DPBS were vortexed and preincubated 37 °C for 5 min. The reaction was initiated by addition of 25 µL analogously pre-incubated β-NADPH (finally: 1 mM). […]
Testosterone (10 µM in ACN/DPBS 2/3, v/v) instead of SH045 was used as positive control and analyzed by an appropriate HPLC method with UV detection.
Negative controls contained either no NADPH, no MLM or HLM or none of them. […]
Mean maximum rate vmax and Michaelis-Menten constant Km were calculated using Lineweaver-Burk transformation. From Km an appropriate drug concentration of 2 µM was derived as prerequisite for experimental in vitro determination of t1/2 required for further exploration of clearance.
For this purpose, microsomes were incubated as described above with 2 µM SH045 for indicated time intervals up to 30 min. The remaining concentrations of SH045 were determined to calculate the intrinsic microsomal clearance CLint,micr the intrinsic clearance CLint, equal to the maximum enzyme activity of liver and for in vitro-in vivo exploration of hepatic clearance CLhep in mouse and human using the “well-stirred” model [6].
as §1, with “8]. The inhibitors were dissolved in DPBS and appropriate methanol, the organic solvents not” for “8].”
SH045 (2 µM) was pre-incubated with MLM or HLM (0.5 mg/mL) and the specific inhibitor for 5 min at 37 °C in DPBS.
Ticlopidine, a time-dependent inhibitor was pre-incubated for 15 min [9]. Incubations were performed in triplicate with NADPH (1 mM) in a final volume of 500 µL for 2 min and 10 min with pre-incubated MLM and HLM, respectively, terminated with 1 mL ice-cold ACN and processed as described above for LC-MS/MS. A sample without any inhibitor served as a positive control. […]

- Tissue binding ([1]; kidney): 98%
- Tissue binding ([1]; liver): 97%
- Tissue binding ([1]; lung): 97%
- CLint scaled at 2 µM ([2]; human, liver microsomes, scaled from CLint,micr): 334 mL/min/kg
- CLhep ([2]; human, predicted by well-stirred model, Q 21 mL/min/kg): 0.96 mL/min/kg
- CLint ([2]; human, scaled from CLint,micr): 334.6 mL/min/kg
- half-life at 2 µM ([2]; pH 7.4, human liver microsomes 0.5 mg/mL, 2 µM SH045, NADPH): 4.85 min
- microsomal CLint at 2 µM ([2]; pH 7.4, human liver microsomes, read-out: CLint, micr): 286 µL/min/mg
SMILES: C=C[C@@](C)(O)CC[C@H]1C(=C)C[C@H](OC(=O)NC)[C@H]2C(C)(C)CCC[C@]12C [SH045, (1S,4S,4aR,8aS)-4-((S)-3-Hydroxy-3-methylpent-4-en-1-yl)-4a,8,8-trimethyl-3-methylenedecahydronaphthalen-1-yl methylcarbamate]
